We go through two molecules from article PMC12726774, “HAEEPGP Peptide Efficiently Prevents Alzheimer's Disease Pathology in Vivo” (Alzheimer's & Dementia, 2025).

Data set [1] addresses Aβ (Homo sapiens, UniProt P05067). Description: Isothermal titration calorimetry, interaction of HAEEPGP with Aβ. The note with it: read-out: Kd of binding to Aβ. From the text:
(§1) Abstract Background Currently, the only disease‐modifying therapy for Alzheimer's disease (AD) is monoclonal antibodies against beta‐amyloid (Aβ). […] Short peptides could be an alternative treatment to high‐molecular weight antibodies. They have been successfully tested against various neuropathologies. […] The disadvantage of short peptides is their rapid elimination from an organism. In this work, we added PGP amino acids to the HAEE C‐terminus to stabilize the peptide, studied the pharmacokinetics of HAEEPGP and its ability to suppress AD‐associated pathology. Method Direct interaction of HAEEPGP and Aβ peptides was measured by isothermal titration calorimetry. Pharmacokinetics and distribution to tissues of ^125I labeled HAEEPGP were studied after its intravenous injection in C57BL/6 or 5xFAD mice. HAEEPGP ability to prevent Aβ pathological effect on HMC3 microglial cells was assessed by flow cytometry and IL‐6 ELISA kit. HAEEPGP inhibition effect on AD pathology was studied in vivo using two animal models: transgenic C. elegans overexpressing human Aβ and 5xFAD mice. […] Supported by the Russian Science Foundation (grant #19‐74‐30007).
(In ITC the heat of successive injections is recorded.)

For data set [2] the following is noted: 125I labeled peptide.
Source text: as §1

Data set [3] is described as follows: in vivo. Conditions: mouse, plasma, iv.
Source text: as §1

The conditions of data set [4]: background statement, no reference given; cited from earlier work. From the text: They have been successfully tested against various neuropathologies. […] The disadvantage ...

Read-outs that look alike come from different tables or passages of the source. Residues, ends and D or L forms follow the SMILES beside them. No end group written: not given here.

Chain of Aβ (P05067 672-713 limits assumed): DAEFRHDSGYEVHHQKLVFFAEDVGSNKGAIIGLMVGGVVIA

For HAEEPGP [HAEEPGP], in data set [1], the Kd is 1640 nM. Further, the BBB crossing entry in data set [2] (intravenous injection, mice) was “propitiously crossed BBB”. Moreover, the “level in the mice brain over time” value in data set [2] (during an hour post-injection, intravenous) is on record as “constantly increased”. Also, the “level in the brain, 5xFAD vs wild type mice” value in data set [2] (intravenous, 5xFAD vs C57BL/6) is “higher in 5xFAD than in wild type mice”. In addition, the half-life in data set [3] was found to be 56 ± 12 min.

Take `C[C@H](NC(=O)[C@@H](N)Cc1c[nH]cn1)C(=O)N[C@@H](CCC(=O)O)C(=O)N[C@@H](CCC(=O)O)C(=O)O` [HAEE] (H-HAEE-OH): in data set [4], the BBB crossing result is given as “able to cross the BBB” and the “toxic effect in vivo” value is on record as “no toxic effect”. The molecule also registered a half-life in data set [3] of 17 min.

By Kd is commonly meant the concentration at which binding is half-saturated. The term half-life denotes how long it takes for the measured level to halve.
